Test results as given in patent US9273006B2, “Anabolic compounds for treating and preventing bone loss diseases” (SYDDANSK UNIVERSITET, priority 2012, dated 2016).
“And” between values parts separate entries of the source, which are not always exact repeats. Identical values can stand only once. Like-named read-outs stand apart in the source and are kept apart here.

Test system: hMSC-TERT
[1] = 1 μM inhibitor in osteogenic inducing media, 6 days after induction, hMSC-TERT
[2] = 10 μM inhibitor in osteogenic inducing media, 6 days after induction, hMSC-TERT

Compound	Relative ALP activity [1]	Relative ALP activity [2]	Relative ALP activity
O=P(O)(O)C(O)c1ccc2ccccc2c1 (centres unmarked) [HNMPA]	0.864	0.8557	–
Cc1cc(O)c2c(=O)c3c(O)cc(O)c4c5c(O)cc(O)c6c(=O)c7c(O)cc(C)c8c1c2c(c34)c(c78)c65 [Hypericin]	0.8534	–	–
O=C1Nc2ccccc2/C1=C1/Nc2ccccc2C1=O [Indirubin]	0.3571	0.18	–
CN([C@@H](Cc1ccc(OS(=O)(=O)c2cccc3cnccc23)cc1)C(=O)N1CCN(c2ccccc2)CC1)S(=O)(=O)c1cccc2cnccc12 [KN-62]	0.956	0.9222	–
COc1ccc(S(=O)(=O)N(CCO)c2ccccc2CN(C)C/C=C/c2ccc(Cl)cc2)cc1 [KN-93]	0.7347	0.6802	–
O=C1Cc2c([nH]c3ccc(Br)cc23)-c2ccccc2N1 [Kenpaullone]	0.5044	0.2055	–
C/C(O)=C(\C#N)C(=O)Nc1cc(Br)ccc1Br [LFM-A13]	0.7381	0.9154	–
O=c1cc(N2CCOCC2)oc2c(-c3ccccc3)cccc12 [LY 294002]	0.8628	0.439	–
O=C(O)c1cc(N(Cc2ccccc2O)Cc2cc(O)ccc2O)ccc1O [Lavendustin A]	0.8641	0.4935	–
O=S(=O)(c1cccc2c(I)cccc12)N1CCCNCC1 [ML-7]	1.031	0.9564	–
O=S(=O)(c1cccc2c(Cl)cccc12)N1CCCNCC1 [ML-9]	0.9822	0.6879	–
CC(C)n1cnc2c(NCc3ccccc3)nc(NCCO)nc21 [N9-Isopropyl-olomoucine]	1.128	0.6666	–
Cn1cnc2c(NCc3ccccc3)nc(NCCO)nc21 [Olomoucine]	1.142	0.5408	–
COc1cccc(-c2cc(=O)c3ccccc3o2)c1N [PD-98059]	0.5617	0.6017	–
Cc1ccc(-c2nn(C(C)(C)C)c3ncnc(N)c23)cc1 [PP1]	0.9626	0.5665	–
CC(C)(C)n1nc(-c2ccc(Cl)cc2)c2c(N)ncnc21 [PP2]	0.8276	0.4269	–
Oc1cc(O)cc(/C=C/c2ccc(O)c(O)c2)c1 [Piceatannol]	0.783	0.4885	–
O.O.O=c1c(O)c(-c2ccc(O)c(O)c2)oc2cc(O)cc(O)c12 [Quercetin dihydrate]	1.001	0.8354	–
N#C/C(=C\c1cc(Cl)cc(Cl)c1)c1cccnc1 [RG-14620]	0.8302	1.024	–
CO[C@H]1C[C@@H]2CC[C@@H](C)[C@@](O)(O2)C(=O)C(=O)N2CCCC[C@H]2C(=O)O[C@H]([C@H](C)C[C@@H]2CC[C@@H](O)[C@H](OC)C2)CC(=O)[C@H](C)/C=C(\C)[C@@H](O)[C@@H](OC)C(=O)[C@H](C)C[C@H](C)/C=C/C=C/C=C/1C [Rapamycin]	0.509	0.6057	–
Cn1cc(C2=C(c3cn(CCCSC(=N)N)c4ccccc34)C(=O)NC2=O)c2ccccc21 [Ro 31-8220]	0.3607	Toxic	–
CC[C@H](CO)Nc1nc(NCc2ccccc2)c2ncn(C(C)C)c2n1 [Roscovitine]	0.9865	0.3918	–
CC(=O)c1c(O)c(C)c(O)c(Cc2c(O)c3c(c(C(=O)/C=C/c4ccccc4)c2O)OC(C)(C)C=C3)c1O [Rottlerin]	0.3874	Toxic	–
Oc1ccc(-c2nc(-c3ccc(F)cc3)c(-c3ccncc3)[nH]2)cc1 [SB-202190]	0.7708	0.2703	–

Compound	Relative ALP activity [1]	Relative ALP activity [2]	Relative ALP activity
C[S+]([O-])c1ccc(-c2nc(-c3ccc(F)cc3)c(-c3ccncc3)[nH]2)cc1 (centres unmarked) [SB-203580]	0.824	0.458	–
Oc1c2ccccc2c2c3c(cccc13)N=N2 [SP 600125]	0.5978	0.2913	–
CC(C)c1cc(/C=C(\C#N)C(=O)NCCCc2ccccc2)cc(C(C)C)c1O [SU1498]	0.8711	0.7853	–
CN(C)c1ccc(/C=C2\C(=O)Nc3ccccc32)cc1 [SU 4312]	0.7481	0.5349	–
CCCCCCCCCCCCC/C=C/[C@@H](O)[C@@H](N)CO [Sphingosine]	1.195	Toxic	–
CN[C@@H]1C[C@H]2O[C@@](C)([C@@H]1OC)n1c3ccccc3c3c4c(c5c6ccccc6n2c5c31)C(=O)NC4 [Staurosporine]	TOXIC	Toxic	–
CC1=C(O)C(=O)[C@@H]2O[C@@H]2C1=O [Terreic acid]	0.2721	0.338	–
CC(C)(C)c1cc(C=C(C#N)C#N)cc(C(C)(C)C)c1O [Tyrphostin9]	0.3388	Toxic	–
N#CC(C#N)=Cc1ccc(O)c(O)c1 [Tyrphostin 23]	0.9904	0.7067	–
N#CC(C#N)=Cc1cc(O)c(O)c(O)c1 [Tyrphostin 25]	0.9397	0.8233	–
N#C/C(=C\c1ccc(O)c(O)c1)C(N)=O [Tyrphostin 46]	1.179	0.9029	–
N#C/C(=C\c1ccc(O)c(O)c1)C(N)=S [Tyrphostin 47]	0.901	1.005	–
N#CC(C#N)=C(N)/C(C#N)=C/c1cc(O)c(O)c(O)c1 [Tyrphostin 51]	0.8997	0.8566	–
N#CC(C#N)=Cc1cc(O)c(O)c([N+](=O)[O-])c1 [Tyrphostin AG 1288]	0.8684	0.802	–
Cc1cc2ncc(-c3ccccc3)nc2cc1C [Tyrphostin AG 1295]	1.007	0.3556	–
COc1cc2ncnc(Nc3cccc(Cl)c3)c2cc1OC [Tyrphostin AG 1478]	1.097	Toxic	–
N#CC(=C(/N)Sc1ccccc1N)/C(C#N)=C(\N)Sc1ccccc1N [U-0126]	–	–	0.3485 and 0.281
COC[C@H]1OC(=O)c2coc3c2[C@@]1(C)C1=C(C3=O)[C@@H]2CCC(=O)[C@@]2(C)C[C@H]1OC(C)=O [Wortmannin]	0.8301	0.9122	–
C[C@@H](N)[C@H]1CC[C@H](C(=O)Nc2ccncc2)CC1 [Y-27632]	0.9848	0.4092	–
Cc1ccc(NC(=O)c2cccc(N(C)C)c2)cc1NC(=O)c1ccc(O)cc1 [ZM 336372]	0.869	0.5373	–
C=CC(=O)c1ccc2ccccc2c1 [ZM 449829]	0.9444	0.8946	–
Cn1cnc2nc(NCCO)nc(NCc3ccccc3)c21 [iso-Olomoucine]	1.084	0.9318	–
BML-265	0.3954	Toxic	–
